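Step 1: Grow cells in 96-well plates. Step 2: Expose to compound for 48 hours at 5 concentrations. Step 3: Interpolate endpoints linearly; if unreached, use highest concentration. TGI: total growth inhibition.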
How the values were obtained:
Experiment in all cases: NCI-60 cell line screen, 48 h
SK-MEL-28 melanoma = system: SK-MEL-28 melanoma
EKVX NSCLC = system: EKVX NSCLC
OVCAR-3 ovarian = system: OVCAR-3 ovarian
DMS 273 small cell lung = system: DMS 273 small cell lung
786-0 renal = system: 786-0 renal
U251 CNS = system: U251 CNS
XF 498 CNS = system: XF 498 CNS
TK-10 renal = system: TK-10 renal
HOP-92 NSCLC = system: HOP-92 NSCLC
A498 renal = system: A498 renal
MOLT-4 leukemia = system: MOLT-4 leukemia
COLO 205 colon = system: COLO 205 colon
UO-31 renal = system: UO-31 renal
HCC-2998 colon = system: HCC-2998 colon
SR leukemia = system: SR leukemia
DMS 114 small cell lung = system: DMS 114 small cell lung
HOP-62 NSCLC = system: HOP-62 NSCLC
M14 melanoma = system: M14 melanoma
NCI-H460 lung = system: NCI-H460 lung
SNB-78 CNS = system: SNB-78 CNS
SN12C renal = system: SN12C renal
A549 NSCLC = system: A549 NSCLC
KM20L2 colon = system: KM20L2 colon
CCRF-CEM leukemia = system: CCRF-CEM leukemia
UACC-62 melanoma = system: UACC-62 melanoma
K-562 leukemia = system: K-562 leukemia
NCI-H226 lung = system: NCI-H226 lung
HL-60(TB) leukemia = system: HL-60(TB) leukemia
KM12 colon = system: KM12 colon
SF-268 CNS = system: SF-268 CNS
HT29 colon = system: HT29 colon
CAKI-1 renal = system: CAKI-1 renal
IGROV1 ovarian = system: IGROV1 ovarian
HCT-15 colon = system: HCT-15 colon
SF-539 CNS = system: SF-539 CNS
ACHN renal = system: ACHN renal
SNB-19 CNS = system: SNB-19 CNS
NCI-H23 lung = system: NCI-H23 lung
OVCAR-5 ovarian = system: OVCAR-5 ovarian
OVCAR-4 ovarian = system: OVCAR-4 ovarian
HOP-18 NSCLC = system: HOP-18 NSCLC
RXF 393 renal = system: RXF 393 renal
SNB-75 CNS = system: SNB-75 CNS
SK-MEL-2 melanoma = system: SK-MEL-2 melanoma
HCT-116 colon = system: HCT-116 colon
OVCAR-8 ovarian = system: OVCAR-8 ovarian
UACC-257 melanoma = system: UACC-257 melanoma
SF-295 CNS = system: SF-295 CNS
M19-MEL melanoma = system: M19-MEL melanoma
DLD-1 colon = system: DLD-1 colon
SK-MEL-5 melanoma = system: SK-MEL-5 melanoma
SW-620 colon = system: SW-620 colon
NCI-H522 lung = system: NCI-H522 lung
LOX IMVI melanoma = system: LOX IMVI melanoma
MALME-3M melanoma = system: MALME-3M melanoma
RPMI-8226 leukemia = system: RPMI-8226 leukemia
SK-OV-3 ovarian = system: SK-OV-3 ovarian
LXFL 529 NSCLC = system: LXFL 529 NSCLC

Measured: TGI

O=C(O)c1ccccc1C(=O)c1ccco1
not listed: RPMI-8226 leukemia | SK-OV-3 ovarian | LXFL 529 NSCLC
> 100 µM: all other assays above

NC1CCC2(O)c3ccccc3C2C1 (centres undefined)
not listed: OVCAR-3 ovarian | HOP-92 NSCLC | A498 renal | HCC-2998 colon | CAKI-1 renal | IGROV1 ovarian | SF-539 CNS | OVCAR-5 ovarian | DLD-1 colon
> 100 µM: all other assays above
